From patent US20100003217A1, “Compounds and Pharmaceutical Compositions for the Treatment of Viral Infections” (priority 2008, published 2010)
Several values for one entry are separate records, joined by “and”; a condition that tells them apart may be missing. Equal values may be shown once.

Test system: human primary hepatocytes
Assay: Metabolic disposition of [^14C]-Compound 1 and [^14C]-2′-C-methyl guanosine in human primary hepatocytes (incubation medium, cellular extracts, nucleotide levels)
Format: in vitro ADME
Protocol: Primary hepatocytes: Freshly isolated cells from animal and human liver were obtained in suspension on ice. Cells were pelleted by centrifugation at 70-75×g (rat) or 95-90×g (monkey and human) and resuspended at 0.8 million cells per mL of platting medium (William's E supplemented with 5% FBS, 0.5% penicillin-streptomycin, 1% L-glutamine, 4 μg/mL insulin and 1 μM dexamethasone). Multi-well collagen I-coated plates (rat tail collagen type I; 12- or 6-well) were then seeded by addition of 1 mL (12-well; 0.8 million cells/well) or 2 mL (6-well; 1.6 million cells/well) of cell suspension. The plates were gently shaken to evenly distribute the cells and placed in an incubator at 37° C. for approximately 4 to 6 hours to allow cells to attach. Once cells were attached, the platting medium was removed and replaced with hepatocyte culture medium (William's E supplemented with penicillin-streptomycin, 1% L-glutamine, 1% insulin-transferrin-selenium and 0.1 μM dexamethasone). Cells were left overnight in an incubator at 37° C. to acclimatize to culture and the medium.
Hepatocyte incubations with radiolabeled Compound 1 and 2′-C-methyl guanosine, both labeled in the C-8 position of the guanine moiety, were conducted at a final volume of 2.0 mL hepatocyte culture medium/well ([…]). Culture medium from overnight incubation of cells was removed and replaced with fresh medium, pre-warmed to 37° C., containing 1 or 10 μM [^14C]-Compound 1 ([…]) or [^14C]-2′-C-methyl guanosine (127 DPM/μmol) from a stock solution in DMSO (final DMSO concentration was 0.1%) or 50% ethanol (final ethanol concentration was 0.2%). After 1, 4, 8 and 24 hours, 0.5-1.0 mL of incubation medium was removed and stored at −20° C. until analysis (described below). The remaining medium was discarded and cell monolayers were carefully washed two times with ice-cold PBS. Following the last wash, all PBS was carefully removed and 1.0 mL of extraction solution (ice-cold 70% methanol) added. Cells were scrapped off and suspended in the extraction solution, transferred to 2 mL polypropylene microfuge tubes and intracellular contents extracted overnight at −20° C.
Preliminary identification of putative metabolites was conducted by comparing the retention time of observed metabolites in incubation medium and cellular extracts with retention times obtained with chemically synthesized standards using the chromatography conditions described below. Further identification of 2′-C-methyl guanosine nucleotides (mono-, di- and triphosphate) was carried out by incubating cellular extract samples with alkaline phosphatase (10 units for 60 min at 37° C.) and comparing the HPLC retention times of the resulting nucleosides with that of authentic 2′-C-methyl guanosine.
Cellular extracts were prepared by centrifugation at 16,000 RCF using an Eppendorf microcentrifuge (Eppendorf, Model 5415D) for 10 min to remove cellular debris. An aliquot of 5-10 μL of the supernatant was added to 5 mL of EcoLite™ (MP, Irvine, Calif.) liquid scintillation cocktail and radioactivity measured by liquid scintillation counting (LSC) using a Beckman Coulter LS6500 multipurpose liquid scintillation counter (Beckman Instruments, Fullerton, Calif.). The remaining sample was then dried using a Labconco refrigerated centrivap concentrator (Labconco, Kansas City, Mo.). Dry extracts were reconstituted in 120 μL of HPLC-grade water and centrifuged at 16,000 RCF using an Eppendorf microcentrifuge for 10 min. Prior to HPLC analysis (described below), radioactivity of the concentrated extracts was measured by LSC using 5 μL aliquots. Extraction recovery was then determined by comparing total radioactivity in extracts before and after drying. The remaining extract was then analyzed by HPLC with online radioactivity detection using a Flow Scintillation Analyzer Radiomatic™ 515TR. Radioactivity in the separated components was quantified by integrating the peaks using Flo-One™ Software (Perkin Elmer Life Sciences). […]

[1] = human hepatocytes (Hu775), 1 μM [^14C]-Compound 1, 1 h
[2] = human hepatocytes (Hu775), 1 μM [^14C]-Compound 1, 8 h
[3] = human hepatocytes (Hu775), 1 μM [^14C]-Compound 1, 24 h
[4] = human hepatocytes Hu775, 1 μM [^14C]-2′-C-methyl guanosine, 1 h
[5] = human hepatocytes Hu775, 1 μM [^14C]-2′-C-methyl guanosine, 8 h
[6] = human hepatocytes Hu775, 1 μM [^14C]-2′-C-methyl guanosine, 24 h

metabolites observed in cellular extracts (% of total radioactivity) (human hepatocytes (Hu759, Hu775), 10 μM [^14C]-2′-C-methyl guanosine, 1 h): 0.51% and 0.63%
metabolites observed in cellular extracts (% of total radioactivity) (human hepatocytes (Hu759, Hu775), 10 μM [^14C]-2′-C-methyl guanosine, 4 h): 1.64% and 2.36%
metabolites observed in cellular extracts (% of total radioactivity) (human hepatocytes (Hu759, Hu775), 10 μM [^14C]-2′-C-methyl guanosine, 8 h): 4.54% and 3.46%
metabolites observed in cellular extracts (% of total radioactivity) (human hepatocytes (Hu759, Hu775), 10 μM [^14C]-2′-C-methyl guanosine, 24 h): 7.71% and 10.6%
metabolites observed in cellular extracts (% of total radioactivity) (human hepatocytes (Hu759, Hu775), 10 μM [^14C]-Compound 1, 1 h): 4.93% and 6.09%
metabolites observed in cellular extracts (% of total radioactivity) (human hepatocytes (Hu759, Hu775), 10 μM [^14C]-Compound 1, 4 h): 8.01% and 12.4%
metabolites observed in cellular extracts (% of total radioactivity) (human hepatocytes (Hu759, Hu775), 10 μM [^14C]-Compound 1, 8 h): 13.99% and 11.1%
metabolites observed in cellular extracts (% of total radioactivity) (human hepatocytes (Hu759, Hu775), 10 μM [^14C]-Compound 1, 24 h): 13.4% and 17.05%
2′-C-methyl guanosine nucleotide levels in cellular extracts [1]: 1.40 pmol/million cells
metabolites observed in cellular extracts (% of total radioactivity) [1]: 7.94%
2′-C-methyl guanosine nucleotide levels in cellular extracts [2]: 7.70 pmol/million cells
metabolites observed in cellular extracts (% of total radioactivity) [2]: 13.0%
2′-C-methyl guanosine nucleotide levels in cellular extracts [3]: 11.2 pmol/million cells
metabolites observed in cellular extracts (% of total radioactivity) [3]: 12.4%
2′-C-methyl guanosine nucleotide levels in cellular extracts (human hepatocytes Hu759, 10 μM [^14C]-2′-C-methyl guanosine, 0 h): 0 pmol/million cells
2′-C-methyl guanosine nucleotide levels in cellular extracts (human hepatocytes Hu759, 10 μM [^14C]-2′-C-methyl guanosine, 1 h): 2.10 pmol/million cells
2′-C-methyl guanosine nucleotide levels in cellular extracts (human hepatocytes Hu759, 10 μM [^14C]-2′-C-methyl guanosine, 4 h): 7.50 pmol/million cells
2′-C-methyl guanosine nucleotide levels in cellular extracts (human hepatocytes Hu759, 10 μM [^14C]-2′-C-methyl guanosine, 8 h): 22.1 pmol/million cells
2′-C-methyl guanosine nucleotide levels in cellular extracts (human hepatocytes Hu759, 10 μM [^14C]-2′-C-methyl guanosine, 24 h): 46.0 pmol/million cells
2′-C-methyl guanosine nucleotide levels in cellular extracts (human hepatocytes Hu759, 10 μM [^14C]-Compound 1, 0 h): 0 pmol/million cells
2′-C-methyl guanosine nucleotide levels in cellular extracts (human hepatocytes Hu759, 10 μM [^14C]-Compound 1, 1 h): 3.00 pmol/million cells
2′-C-methyl guanosine nucleotide levels in cellular extracts (human hepatocytes Hu759, 10 μM [^14C]-Compound 1, 4 h): 21.0 pmol/million cells
2′-C-methyl guanosine nucleotide levels in cellular extracts (human hepatocytes Hu759, 10 μM [^14C]-Compound 1, 8 h): 45.0 pmol/million cells
2′-C-methyl guanosine nucleotide levels in cellular extracts (human hepatocytes Hu759, 10 μM [^14C]-Compound 1, 24 h): 69.0 pmol/million cells
2′-C-methyl guanosine nucleotide levels in cellular extracts [5]: 2.70 pmol/million cells
Major metabolites observed in cellular extracts (% of total radioactivity) [5]: 6.83 % of total radioactivity
2′-C-methyl guanosine nucleotide levels in cellular extracts [6]: 4.00 pmol/million cells
Major metabolites observed in cellular extracts (% of total radioactivity) [6]: 9.04 % of total radioactivity
2′-C-methyl guanosine nucleotide levels in cellular extracts (human hepatocytes Hu775, 10 μM [^14C]-2′-C-methyl guanosine, 0 h): 0 pmol/million cells
2′-C-methyl guanosine nucleotide levels in cellular extracts (human hepatocytes Hu775, 10 μM [^14C]-2′-C-methyl guanosine, 1 h): 2.90 pmol/million cells
2′-C-methyl guanosine nucleotide levels in cellular extracts (human hepatocytes Hu775, 10 μM [^14C]-2′-C-methyl guanosine, 4 h): 10.5 pmol/million cells
2′-C-methyl guanosine nucleotide levels in cellular extracts (human hepatocytes Hu775, 10 μM [^14C]-2′-C-methyl guanosine, 8 h): 15.0 pmol/million cells
2′-C-methyl guanosine nucleotide levels in cellular extracts (human hepatocytes Hu775, 10 μM [^14C]-2′-C-methyl guanosine, 24 h): 50.0 pmol/million cells
2′-C-methyl guanosine nucleotide levels in cellular extracts (human hepatocytes Hu775, 10 μM [^14C]-Compound 1, 0 h): 0 pmol/million cells
2′-C-methyl guanosine nucleotide levels in cellular extracts (human hepatocytes Hu775, 10 μM [^14C]-Compound 1, 1 h): 7.10 pmol/million cells
2′-C-methyl guanosine nucleotide levels in cellular extracts (human hepatocytes Hu775, 10 μM [^14C]-Compound 1, 4 h): 38.4 pmol/million cells
2′-C-methyl guanosine nucleotide levels in cellular extracts (human hepatocytes Hu775, 10 μM [^14C]-Compound 1, 8 h): 55 pmol/million cells
2′-C-methyl guanosine nucleotide levels in cellular extracts (human hepatocytes Hu775, 10 μM [^14C]-Compound 1, 24 h): 161 pmol/million cells
Compound: C[C@@]1(O)[C@H](O)[C@@H](COP(=O)(O)OP(=O)(O)O)O[C@H]1n1cnc2c(=O)[nH]c(N)nc21 [Compound 6, [(2R)-2-methyl-β-D-ribofuranosyl]guanine 5′-diphosphate]
2′-C-methyl guanosine nucleotide levels in cellular extracts (human hepatocytes (Hu775), 1 μM [^14C]-Compound 1, 0 h): BLD (BLD = below limit of detection (0.02 pmol/million cells))
2′-C-methyl guanosine nucleotide levels in cellular extracts (human hepatocytes Hu775, 1 μM [^14C]-2′-C-methyl guanosine, 0 h): BLD (BLD = below limit of detection (0.02 pmol/million cells))
2′-C-methyl guanosine nucleotide levels in cellular extracts [4]: BLD (BLD = below limit of detection (0.02 pmol/million cells))
Major metabolites observed in cellular extracts (% of total radioactivity) [4]: BLD (BLD = below limit of detection (30 DPM))
